Experiments:
[1] = Plasma protein binding assay (equilibrium dialysis), rat plasma; assay type: in vitro ADME
Procedure: (§1) Preparation of plasma samples: 5 μL of test compound solution or positive control was added to 495 μL of blank plasma of various species (mouse, rat, dog, monkey and human) to obtain plasma sample solutions at plasma concentrations of 1 μM and 10 μM (in acetonitrile).
(§2) The pretreated dialysis membrane was loaded on a high-throughput equilibrium dialysis system. 100 μL of the plasma sample solution and PBS buffer were added to the two sides (sample side and buffer side) of the dialysis membrane respectively (n=3). The system was sealed with a patch and incubated at 37° C. overnight (100 rpm) to achieve dialysis equilibrium. 50 μL samples were taken from the sample side and the buffer side, and the reaction was terminated with glacial acetonitrile containing an internal standard.
(§3) Sample pretreatment: 450 μL of glacial acetonitrile containing an internal standard was added to 50 μL of the sample from the plasma side for precipitation. The mixture was vortexed for 5 min, and centrifuged (12000 rpm, 4° C.) for 10 min. 75 μL of supernatant was taken and diluted with 75 μL of ultrapure water. After being mixed well, 1 μL of the resulting sample was injected for analysis; 250 μL of glacial acetonitrile containing an internal standard was added to 50 μL of the sample from the PBS side for precipitation. The mixture was vortexed for 5 min, and centrifuged (12000 rpm, 4° C.) for 10 min. […]

[2] = Plasma protein binding assay (equilibrium dialysis), mouse plasma; assay type: in vitro ADME
Procedure: as §1, §2, §3

[3] = tested on: HBV DNA in HepG2.2.15 cells; test: In-vitro inhibitory activity against HBV DNA in HepG2.2.15 cells; assay type: cell-based; conditions: Hepatitis B virus, 144 h, 6 days treatment, intracellular capsid HBV DNA by qPCR, read-out: EC50 (anti-HBV activity)
Procedure: (§4) A vial of HepG2.2.15 cells (Wuhan Institute of Virology) or HepAD38 cells in good condition and at logarithmic growth phase was washed once with 5 mL of PBS. 3 mL of pancreatin was added. The cells were digested at room temperature for 5 min, then 2 mL of pancreatin was discarded. The cells were further digested in a cell incubator for 10 min, and observed under a microscope (whether the cells are round in shape, and whether the cells are separated or adhered). 10 mL of complete medium was added to terminate the digestion. The cells was mixed using a pipette to obtain a single cell suspension. 10 μL of the cell suspension was loaded on a cell counter for counting, and diluted with the complete medium to adjust the cell density to 1×10^5 cells/mL. The cells were seeded on a 24-well plate (pre-coated with 50 μg/mL Collagen I solution) at 1 mL/well using a multi-channel pipette and cultured in a thermostatic CO2 incubator for 48 h.
(§5) A solution of the compound dissolved in DMSO was diluted to 10 concentrations in a 2-fold gradient using complete medium. The cells were treated with the compound for 6 days with the media containing the compound refreshed every 72 h. […] HBV DNA in the intracellular viral capsid was measured by real-time fluorescent quantitative PCR. The inhibition rate was calculated according to the Ct value, and the EC50 value was calculated by four-parameter fitting.

[4] = Plasma protein binding assay (equilibrium dialysis), human plasma; assay type: in vitro ADME
Procedure: as §1, §2, §3

[5] = Plasma protein binding assay (equilibrium dialysis), monkey plasma; assay type: in vitro ADME
Procedure: as §1, §2, §3

[6] = tested on: HBV DNA in HepAD38 cells; test: In-vitro inhibitory activity against HBV DNA in HepAD38 cells; assay type: cell-based; conditions: Hepatitis B virus, 144 h, 6 days treatment, intracellular capsid HBV DNA by qPCR, read-out: EC50 (anti-HBV activity)
Procedure: as §4, §5

[7] = Plasma protein binding assay (equilibrium dialysis), dog plasma; assay type: in vitro ADME
Procedure: as §1, §2, §3

[8] = assay type: in vitro ADME
Procedure: A final incubation system of 300 μL contained 30 μL of liver microsomes (protein concentration: 0.15 mg/mL), 30 μL of NADPH+MgCl2, 3 μL of substrate (in acetonitrile) and 237 μL of PBS. Samples were prepared in duplicate of 0.3 mL for each specie. For each tube, the 270 μL mixed solution of substrates and enzyme and the NADPH solution were separately pre-incubated at 37° C. for 5 min. The 30 μL mixed solution of NADPH+MgCl2 was added for reaction. 50 μL samples were taken at 0 min, 10 min, 30 min and 60 min, and 300 μL of glacial acetonitrile containing an internal standard was added to the samples to terminate the reaction.
Sample pretreatment: 300 μL of glacial acetonitrile containing internal standard diazepam was added to 50 μL of the incubated sample for precipitation. The mixture was vortexed for 5 min, and centrifuged (12000 rpm, 4° C.) for 10 min. 75 μL of supernatant was added to a 96-well plate and diluted with 75 μL of ultrapure water. After being mixed well, 0.5 μL of the resulting sample was injected to a LC-MS/MS system for analysis.

[9] = Pharmacokinetic (PK) study in rats; assay type: in vivo; conditions: SD rats, PO 20 mg/kg
Procedure: SD rats (B&K Universal, Shanghai) of 180-220 g were randomized into groups of 3 after 3-5 days of acclimatization and administered with the compounds at a dose of 20 mg/kg by oral gavage.
The animals to be tested (SD rats) were fasted for 12 h before administration and fed 4 h after administration, and had free access to water before, after and during the experiment.
After administration, about 0.2 mL of blood was collected from the orbit at 0 min, 15 min, 30 min, 1 h, 2 h, 4 h, 6 h, 8 h, 10 h, 24 h, 30 h and 48 h. After anticoagulation with EDTA-K2, the blood samples were transferred to a centrifuge at 4° C. within 30 min and centrifuged at 4000 rpm for 10 min to separate the plasma. All the plasma samples were collected and immediately stored at −20° C. for testing. 50 μL of the plasma sample to be tested and standard curve sample were taken, and 500 μL of acetonitrile solution containing an internal standard (20 mg/mL diazepam) was added. The reaction system was shaken for 5 min and centrifuged at 12,000 rpm for 10 min. 75 μL of supernatant was taken and diluted with 75 μL of ultrapure water.
After being mixed well, 1 μL of the resulting sample was taken for LC/MS/MS analysis.

[10] = Stability assay of crystalline form (influential factors: high temperature, high humidity, illumination); assay type: physicochemical; conditions: for Stability at high humidity, at high temperature or under illumination (in words): related substance and water over the observation items
Procedure: The crystalline form I of the compound of formula I prepared in Example 2 and the crystalline form II of the compound of formula I prepared in Example 4, each of 500 mg, were separately placed in dry and clean containers, and evenly spread in thin layers as test samples. The samples were completely exposed to experimental conditions of influential factors (40° C., 60° C., 75% RH, 92.5% RH, high temperature and high humidity (40° C., 75% RH)). Samples were taken for analysis on day 10 and day 30. The samples were completely exposed to illumination (visible light of 1,200,000 Lux·hr, UV of 216 W·hr/m^2) at room temperature.
Chromatographic column: Agilent AdvanceBio Peptide C18 (4.6 mm×150 mm, 3.5 μm).
The water content was measured by a Mettler V20 system.
About 10 mg of the sample was dissolved with an appropriate amount of a mixed diluent of acetonitrile-water (70:30) for content assay of related substance.

[11] = High humidity (92.5% RH), Day 10
[12] = High humidity (92.5% RH), Day 30
[13] = High temperature (40° C.), Day 10
[14] = High temperature (40° C.), Day 30
[15] = High temperature (60° C.), Day 10
[16] = High temperature (60° C.), Day 30
[17] = High temperature and high humidity (40° C., 75% RH), Day 10
[18] = High temperature and high humidity (40° C., 75% RH), Day 30

Row | SMILES | Related substance (total impurities) ([10]; Day 0) [%] | Water ([10]; Day 0) [%] | Related substance (total impurities) ([10]; High humidity (75% RH), Day 10) [%] | Water ([10]; High humidity (75% RH), Day 10) [%] | Related substance (total impurities) ([10]; High humidity (75% RH), Day 30) [%] | Water ([10]; High humidity (75% RH), Day 30) [%] | Related substance (total impurities) [10, 11] [%] | Water [10, 11] [%] | Related substance (total impurities) [10, 12] [%] | Water [10, 12] [%] | Related substance (total impurities) [10, 13] [%] | Water [10, 13] [%] | Related substance (total impurities) [10, 14] [%] | Water [10, 14] [%] | Related substance (total impurities) [10, 15] [%] | Water [10, 15] [%] | Related substance (total impurities) [10, 16] [%] | Water [10, 16] [%] | Related substance (total impurities) [10, 17] [%] | Water [10, 17] [%] | other results
1 | Cc1c(C(=O)Nc2ccc(F)c(C#N)c2)c(C)n(C)c1C(=O)C(=O)N[C@@H](C)C(F)(F)F [Compound of formula I, (S)—N-(3-cyano-4-fluorophenyl)-1,2,4-trimethyl-5-(2-oxo-2-((1,1,1-trifluoropropan-2-yl)amino)acetyl)-1H-pyrrol-3-carboxamide] | – | – | – | – | – | – | – | – | – | – | – | – | – | – | – | – | – | – | – | – | Binding rate, Rat ([1]; 1 μM): 82.0%; Binding rate, Rat ([1]; 10 μM): 79.2%; Binding rate, Mouse ([2]; 1 μM): 75.3%; Binding rate, Mouse ([2]; 10 μM): 74.5%; EC50 [3]: ≤ 10 nM; Binding rate, Human ([4]; 1 μM): 94.0%; Binding rate, Human ([4]; 10 μM): 93.7%; Binding rate, Monkey ([5]; 1 μM): 90.7%; Binding rate, Monkey ([5]; 10 μM): 90.6%; EC50 [6]: ≤ 10 nM; Binding rate, Dog ([7]; 1 μM): 85.9%; Binding rate, Dog ([7]; 10 μM): 85.9%; Residual content after 60 min, Human liver microsome [8]: 78.8%; Residual content after 60 min, Mouse liver microsome [8]: 67.1%; Residual content after 60 min, Rat liver microsome [8]: 65.0%; F [9]: 57%
2 | Cc1c(C(=O)Nc2ccc(F)c(C#N)c2)c(C)n(C)c1C(=O)C(=O)N[C@@H](C)C(F)(F)F [crystalline form I, (S)—N-(3-cyano-4-fluorophenyl)-1,2,4-trimethyl-5-(2-oxo-2-((1,1,1-trifluoropropan-2-yl)amino)acetyl)-1H-pyrrol-3-carboxamide] | 0.55 | 0.27 | 0.72 | 0.19 | 0.66 | 0.20 | 0.69 | 0.21 | 0.66 | 0.26 | 0.66 | 0.18 | 0.63 | 0.19 | 0.66 | 0.20 | 0.60 | 0.18 | 0.64 | 0.17 | Related substance (total impurities) [10, 18]: 0.64%; Water [10, 18]: 0.22%; Related substance (total impurities) ([10]; Illumination, Day 10): 0.63%; Water ([10]; Illumination, Day 10): 0.16%; Stability at high humidity, at high temperature or under illumination (in words) [10]: good stability
3 | Cc1c(C(=O)Nc2ccc(F)c(C#N)c2)c(C)n(C)c1C(=O)C(=O)N[C@@H](C)C(F)(F)F [crystalline form II, (S)—N-(3-cyano-4-fluorophenyl)-1,2,4-trimethyl-5-(2-oxo-2-((1,1,1-trifluoropropan-2-yl)amino)acetyl)-1H-pyrrol-3-carboxamide] | 0.24 | 0.22 | 0.23 | 0.22 | 0.25 | 0.21 | 0.23 | 0.22 | 0.24 | 0.21 | 0.22 | 0.20 | 0.24 | 0.19 | 0.22 | 0.18 | 0.24 | 0.18 | 0.24 | 0.24 | Related substance (total impurities) [10, 18]: 0.24%; Water [10, 18]: 0.21%; Related substance (total impurities) ([10]; Illumination, Day 10): 0.27%; Water ([10]; Illumination, Day 10): 0.22%; Stability at high humidity, at high temperature or under illumination (in words) [10]: good stability
